Like-named read-outs stand apart in the source and are kept apart here.

Results on 1 compound are retold here after article PMC4979471 (Cell Death Discovery, 2015).

Holding throughout (experiment): Kinase selectivity, P33-radiolabeled assay
What all share (assay type): biochemical
Conditions in all cases: 10 μM ATP

The target of assay [1] is T1, CDK5/p25 (Homo sapiens, UniProt Q00535).
T1 construct: purchased Reaction Biology Corp
An outline of the steps:
(§1)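 Reactions contained 10 μM ATP and 10 μM test compound, each run in duplicate. Kinase activity is expressed as a percentage of DMSO-treated controls.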

The target in assay [2] is T2, STK32B/YANK2 (Homo sapiens, UniProt Q9NY57).
T2 construct: purchased Reaction Biology Corp
An outline of the steps:
as §1

The target in assay [3] is T3, MARK1 (Homo sapiens, UniProt Q9P0L2).
T3 construct: purchased Reaction Biology Corp
An outline of the steps:
as §1

The target of assay [4] is T4, MARK4 (Homo sapiens, UniProt Q96L34).
T4 construct: purchased Reaction Biology Corp
T4 sequence (Q96L34 1-752): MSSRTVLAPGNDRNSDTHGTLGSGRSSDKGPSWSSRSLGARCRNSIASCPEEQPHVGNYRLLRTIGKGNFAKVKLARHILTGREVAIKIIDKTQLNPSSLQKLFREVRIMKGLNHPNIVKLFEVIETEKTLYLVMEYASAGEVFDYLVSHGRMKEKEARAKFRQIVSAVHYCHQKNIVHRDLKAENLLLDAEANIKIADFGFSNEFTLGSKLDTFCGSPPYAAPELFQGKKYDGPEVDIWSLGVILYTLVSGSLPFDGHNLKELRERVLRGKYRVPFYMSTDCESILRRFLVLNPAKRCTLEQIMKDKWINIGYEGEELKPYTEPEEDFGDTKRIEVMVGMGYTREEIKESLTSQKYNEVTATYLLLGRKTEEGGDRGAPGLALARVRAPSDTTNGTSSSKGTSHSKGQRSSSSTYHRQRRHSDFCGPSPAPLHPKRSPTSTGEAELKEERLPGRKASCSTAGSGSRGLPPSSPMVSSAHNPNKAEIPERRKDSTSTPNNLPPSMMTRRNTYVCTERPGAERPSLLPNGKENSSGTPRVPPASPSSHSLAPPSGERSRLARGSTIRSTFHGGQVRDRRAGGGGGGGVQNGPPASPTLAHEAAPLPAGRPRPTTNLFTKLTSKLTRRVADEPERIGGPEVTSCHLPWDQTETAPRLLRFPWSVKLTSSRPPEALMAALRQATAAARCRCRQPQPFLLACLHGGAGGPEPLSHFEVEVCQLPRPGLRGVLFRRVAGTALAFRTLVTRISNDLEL
The method, boiled down:
as §1

Assay [5] deals with T5, Haspin (Homo sapiens, UniProt Q8TF76).
T5 construct: purchased Reaction Biology Corp
T5 sequence (Q8TF76 1-798): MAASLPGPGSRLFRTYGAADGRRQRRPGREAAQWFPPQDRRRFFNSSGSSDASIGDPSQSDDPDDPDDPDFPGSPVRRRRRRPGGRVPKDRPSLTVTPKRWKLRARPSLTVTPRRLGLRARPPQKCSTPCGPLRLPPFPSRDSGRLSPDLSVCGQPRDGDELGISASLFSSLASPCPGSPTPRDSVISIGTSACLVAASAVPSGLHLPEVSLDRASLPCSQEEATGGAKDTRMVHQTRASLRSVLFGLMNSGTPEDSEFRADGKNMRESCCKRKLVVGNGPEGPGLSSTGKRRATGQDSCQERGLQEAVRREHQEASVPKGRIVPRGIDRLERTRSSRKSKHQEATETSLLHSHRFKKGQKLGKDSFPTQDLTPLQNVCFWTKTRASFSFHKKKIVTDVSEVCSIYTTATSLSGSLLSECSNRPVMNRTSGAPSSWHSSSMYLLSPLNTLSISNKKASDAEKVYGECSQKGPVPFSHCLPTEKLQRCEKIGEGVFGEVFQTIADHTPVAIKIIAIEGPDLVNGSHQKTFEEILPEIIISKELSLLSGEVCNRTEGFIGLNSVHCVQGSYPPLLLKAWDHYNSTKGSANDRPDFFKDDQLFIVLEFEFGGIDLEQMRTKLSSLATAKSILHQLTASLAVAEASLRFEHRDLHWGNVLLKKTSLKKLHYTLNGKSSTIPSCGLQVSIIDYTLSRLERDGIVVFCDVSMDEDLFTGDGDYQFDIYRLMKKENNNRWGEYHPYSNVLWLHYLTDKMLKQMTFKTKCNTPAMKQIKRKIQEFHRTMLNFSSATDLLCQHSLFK
The method, boiled down: as §1

Assay [6] concerns the target T6, FGR (Homo sapiens, UniProt P09769).
T6 construct: purchased Reaction Biology Corp
An outline of the steps:
as §1

The target in assay [7] is T7, ALK5/TGFBR1 (Homo sapiens, UniProt P36897).
T7 construct: purchased Reaction Biology Corp
T7 sequence (P36897 34-503): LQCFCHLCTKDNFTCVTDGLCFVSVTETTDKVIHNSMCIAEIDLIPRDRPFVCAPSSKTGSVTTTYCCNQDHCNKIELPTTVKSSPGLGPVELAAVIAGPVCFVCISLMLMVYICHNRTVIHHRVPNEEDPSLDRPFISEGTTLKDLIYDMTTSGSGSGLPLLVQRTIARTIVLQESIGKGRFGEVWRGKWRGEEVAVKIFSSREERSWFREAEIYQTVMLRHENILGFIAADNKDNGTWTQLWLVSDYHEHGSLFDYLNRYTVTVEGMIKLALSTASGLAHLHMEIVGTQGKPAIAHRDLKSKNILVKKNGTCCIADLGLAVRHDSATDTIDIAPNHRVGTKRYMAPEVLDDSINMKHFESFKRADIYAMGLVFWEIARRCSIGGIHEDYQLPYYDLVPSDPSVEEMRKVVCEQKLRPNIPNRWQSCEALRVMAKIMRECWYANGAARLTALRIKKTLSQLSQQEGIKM
The method, boiled down:
as §1

Setting [8] is: read-out: % Enzyme Activity (relative to DMSO controls) AVG.
The mark [9] stands for this setting: read-out: % Enzyme Activity (relative to DMSO controls) Data 1.
Where [10] appears, read: read-out: % Enzyme Activity (relative to DMSO controls) Data 2.

T2 sequence (Q9NY57 whole entry): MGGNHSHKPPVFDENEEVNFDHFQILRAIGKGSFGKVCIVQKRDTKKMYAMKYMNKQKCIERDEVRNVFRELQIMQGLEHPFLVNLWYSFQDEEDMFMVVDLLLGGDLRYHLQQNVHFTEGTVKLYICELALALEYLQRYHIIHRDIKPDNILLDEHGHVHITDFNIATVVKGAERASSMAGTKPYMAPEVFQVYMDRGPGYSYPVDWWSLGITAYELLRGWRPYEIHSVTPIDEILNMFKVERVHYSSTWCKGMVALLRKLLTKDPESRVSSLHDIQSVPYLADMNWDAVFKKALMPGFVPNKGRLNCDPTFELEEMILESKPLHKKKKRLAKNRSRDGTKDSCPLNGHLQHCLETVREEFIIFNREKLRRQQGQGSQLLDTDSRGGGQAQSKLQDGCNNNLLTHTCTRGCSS
T1 sequence (Q00535 whole entry): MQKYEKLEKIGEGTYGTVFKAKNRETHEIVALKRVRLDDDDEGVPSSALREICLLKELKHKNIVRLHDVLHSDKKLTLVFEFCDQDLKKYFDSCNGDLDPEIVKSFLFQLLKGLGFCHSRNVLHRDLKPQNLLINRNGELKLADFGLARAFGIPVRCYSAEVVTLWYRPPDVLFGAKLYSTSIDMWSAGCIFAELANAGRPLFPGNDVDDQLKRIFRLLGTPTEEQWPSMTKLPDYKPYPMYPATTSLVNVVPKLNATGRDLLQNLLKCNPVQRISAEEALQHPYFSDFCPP
T1 sequence (Q15078 99-307 partner limits assumed): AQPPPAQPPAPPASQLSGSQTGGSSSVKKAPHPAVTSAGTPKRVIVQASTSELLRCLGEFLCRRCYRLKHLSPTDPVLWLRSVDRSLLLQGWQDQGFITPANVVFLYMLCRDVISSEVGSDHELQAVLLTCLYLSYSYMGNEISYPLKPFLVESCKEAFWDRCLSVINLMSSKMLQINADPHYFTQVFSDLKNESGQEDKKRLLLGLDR
T3 sequence (Q9P0L2 whole entry): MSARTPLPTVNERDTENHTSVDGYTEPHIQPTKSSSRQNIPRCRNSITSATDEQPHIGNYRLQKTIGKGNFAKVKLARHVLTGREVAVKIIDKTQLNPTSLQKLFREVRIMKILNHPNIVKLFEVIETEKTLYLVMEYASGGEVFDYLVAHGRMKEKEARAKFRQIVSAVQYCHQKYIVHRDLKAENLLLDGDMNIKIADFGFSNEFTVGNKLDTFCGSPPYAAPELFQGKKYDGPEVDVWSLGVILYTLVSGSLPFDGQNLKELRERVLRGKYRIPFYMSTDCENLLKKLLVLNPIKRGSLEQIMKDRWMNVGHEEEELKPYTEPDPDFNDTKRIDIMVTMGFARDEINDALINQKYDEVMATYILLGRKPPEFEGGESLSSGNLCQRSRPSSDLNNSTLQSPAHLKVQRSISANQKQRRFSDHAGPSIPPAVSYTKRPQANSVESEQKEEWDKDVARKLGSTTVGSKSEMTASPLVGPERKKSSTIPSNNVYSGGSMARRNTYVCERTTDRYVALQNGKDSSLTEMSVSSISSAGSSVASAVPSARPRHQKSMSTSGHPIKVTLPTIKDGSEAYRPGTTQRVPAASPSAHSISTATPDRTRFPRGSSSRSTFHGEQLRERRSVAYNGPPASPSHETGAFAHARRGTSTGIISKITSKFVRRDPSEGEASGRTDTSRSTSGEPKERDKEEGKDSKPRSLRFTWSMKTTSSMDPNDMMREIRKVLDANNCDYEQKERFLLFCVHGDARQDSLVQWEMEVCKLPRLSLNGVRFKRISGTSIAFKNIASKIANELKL
T6 sequence (P09769 whole entry): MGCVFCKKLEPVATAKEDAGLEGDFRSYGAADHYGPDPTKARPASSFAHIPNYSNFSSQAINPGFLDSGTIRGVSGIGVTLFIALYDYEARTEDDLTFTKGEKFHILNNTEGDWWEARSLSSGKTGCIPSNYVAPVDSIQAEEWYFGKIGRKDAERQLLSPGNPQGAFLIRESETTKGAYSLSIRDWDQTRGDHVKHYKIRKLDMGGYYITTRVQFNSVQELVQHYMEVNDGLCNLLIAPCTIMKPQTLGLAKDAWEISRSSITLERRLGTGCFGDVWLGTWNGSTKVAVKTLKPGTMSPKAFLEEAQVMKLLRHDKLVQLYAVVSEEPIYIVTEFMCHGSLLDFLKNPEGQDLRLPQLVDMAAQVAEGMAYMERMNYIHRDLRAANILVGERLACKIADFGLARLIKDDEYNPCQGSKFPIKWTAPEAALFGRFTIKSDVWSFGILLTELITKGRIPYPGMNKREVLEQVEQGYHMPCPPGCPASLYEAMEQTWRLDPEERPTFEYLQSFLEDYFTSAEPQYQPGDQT

`CC(C)(C)C(=O)N1N=CC[C@H]1c1ccccc1` [GSK′963]: the remaining activity at 10 µM in assay [1] (setting [8]) is 97%; in assay [1] (setting [9]), 98.1%; in assay [1] (setting [10]), 95.8%; in assay [2] (setting [8]), 98.5%; in assay [2] (setting [9]) it was 98.6%; in assay [2] (setting [10]), 98.4%. The remaining activity at 10 µM in assay [3] (setting [8]) came out at 105%; in assay [3] (setting [9]), 105%; in assay [3] (setting [10]) it was 105%; in assay [4] (setting [8]), 107%; in assay [4] (setting [9]) it was 105%; in assay [4] (setting [10]), 109%. The remaining activity at 10 µM in assay [5] (setting [8]) worked out at 96.7%; in assay [5] (setting [9]), 97.3%; in assay [5] (setting [10]), 96.2%; in assay [6] (setting [8]) it was 107%; in assay [6] (setting [9]) it was 106%; in assay [6] (setting [10]), 108%. Further, the remaining activity at 10 µM in assay [7] (setting [8]) is 94.1%; in assay [7] (setting [9]), 97%; in assay [7] (setting [10]), 91.2%.
